Assay results as given in publication PMC5832847, “Rapid measurement of inhibitor binding kinetics by isothermal titration calorimetry” (Nature Communications, 2018).

Molecular target: T1, prolyl oligopeptidase (POP) (Homo sapiens, UniProt P48147)
T1 construct: made in house; host or cells: E. coli BL21
T1 sequence (P48147 1-710): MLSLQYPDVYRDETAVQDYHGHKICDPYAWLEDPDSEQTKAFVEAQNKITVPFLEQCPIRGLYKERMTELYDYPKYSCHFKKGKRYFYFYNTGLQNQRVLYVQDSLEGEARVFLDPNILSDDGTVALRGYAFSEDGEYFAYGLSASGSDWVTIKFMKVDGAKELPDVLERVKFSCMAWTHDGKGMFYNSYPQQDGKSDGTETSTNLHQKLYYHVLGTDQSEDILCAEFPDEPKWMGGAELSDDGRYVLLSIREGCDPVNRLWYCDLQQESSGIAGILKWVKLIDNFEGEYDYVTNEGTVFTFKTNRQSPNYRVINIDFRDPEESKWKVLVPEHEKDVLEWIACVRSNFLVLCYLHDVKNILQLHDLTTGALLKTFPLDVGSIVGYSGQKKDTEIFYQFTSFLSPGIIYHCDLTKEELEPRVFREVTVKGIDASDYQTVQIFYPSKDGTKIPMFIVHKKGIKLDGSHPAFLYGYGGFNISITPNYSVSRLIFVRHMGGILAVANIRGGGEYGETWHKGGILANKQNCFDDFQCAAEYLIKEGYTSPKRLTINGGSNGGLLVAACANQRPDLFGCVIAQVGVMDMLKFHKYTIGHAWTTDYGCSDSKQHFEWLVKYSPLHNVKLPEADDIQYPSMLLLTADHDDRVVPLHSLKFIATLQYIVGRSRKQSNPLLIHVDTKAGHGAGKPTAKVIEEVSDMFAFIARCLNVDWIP
Assay: ITC enthalpy of catalysis and Michaelis-Menten parameters with TRH
Format: biochemical
Settings: 30 °C
Protocol: Prolyl oligopeptidase enthalpy of catalysis and Michaelis-Menten parameters.
Supplementary Figure 3. Prolyl oligopeptidase and TRH enthalpy of catalysis. 3 injections (15 µL over 30 s) of Thyrotropin-releasing Hormone (TRH) (5.5 mM in syringe) into cell containing POP (250 nM in Cell) at 30 °C in buffer described above. Experiment was carried out using a Malvern VP -ITC.
Supplementary Figure 4. Michaelis-Menten plot for prolyl oligopeptidase with TRH. 5 injections (8 µL, 6 […]
Thyrotropin -releasing Hormone (TRH) (27.6 mM in syringe) into cell containing POP (2.5 nM in Cell) at 30 °C in buffer described above. The enzyme velocity at several concentrations of substrate (black ope n circles) was extracted using the methods described in 13 and fit to Michaelis-Menten kinetics (blue curve).
Experiment was carried out in Malvern VP -ITC. […]
Supplementary Table 1. Summary of prolyl oligopeptidase 13 enzyme parameters with TRH. Determined by ITC using techniques presented by Gomez et al.
Enthalpy of binding in kinetics of inhibition and initiation experiments . In the kinetics of inhibition and initiation experiments performed here, the instrument measures both the heat generated by enzymatic catalysis and the heat produced due direct interaction of the inhibitor with the enzyme. In order to estimate the relative magnitudes of these two effects, the enthalpy of binding was directly measured […]
1000-fold greater, 5 µM) than those used in kinetics of inhibition and initiation experiments (Supplementary Fig. 5 ). Binding data were then modelled at the concentrations of enzyme and inhibitor and injection size and spacing used for the kinetic experiment for compound 5, with representative instrumental noise estimated from the basel ines, ΔHbind taken from Supplementary Table 2 and Ki taken as a previously reported value (0.5 nM) 14 (Supplementary Fig. 6).
Supplementary Figure 5. Compound 5 prolyl o ligopeptidase binding experiments. Compound 5 (90 µM) was titrated into 5 µM POP in cell using a Malvern ITC-200 calorimeter. […]

thyrotropin-releasing hormone [TRH]
Km: 975 µM | kcat: 42.19 s⁻¹ | ΔHcat: -6.72 ± 0.06 kcal/mol
